Consider 1 substance from US6380169B1, “Metal complex containing oligonucleoside cleavage compounds and therapies” (ISIS Pharmaceuticals, Inc., priority 1994, dated 2002).

For the assay, the system named is 5′-capped RNA transcript (SEQ ID NO:1). The experiment in a line: Cleavage of 3′-end-labeled, 5′-capped RNA by Eu[THED]^3+ (single strand or hybridized to complementary 18-mer DNA oligomer). It counts as biochemical. The conditions noted are these: 1 mM Eu[THED]^3+. How it is done:
In particular, the ability of Eu[THED]^3+ to hydrolyze 5′-capped RNA was established using a 3′-radiolabeled, 5′-capped RNA transcript.
A target oligonucleotide transcript having the following sequence was used (SEQ ID NO:1):
5′-capped RNA was made from the above amplicon using a T7 MEGAshortscript™ transcription kit (Ambion). 5′-capped transcripts were synthesized in a 20 μL reaction volume containing transcription buffer, T7 RNA polymerase, 7.5 mM rNTPs (except rGTP), 1.9 mM rGTP, 7.5 mM ^7MeGpppG and 200 nM DNA amplicon template. For synthesis of uncapped RNA, the capping dinucleotide was omitted from the reaction and rGTP concentration was increased to 7.5 mM. Reaction mixtures were incubated four hours at 37° C. After the transcription reaction was complete, template DNA was digested with 1 U DNase for 15 minutes at 37° C. Transcripts were purified from unincorporated nucleotides and truncated message by PAGE. The transcripts were visualized by UV back shadowing, and the RNA in the excised gel bands was purified using an RNaid™ kit (Bio 101) which is designed specifically for purification of RNA from polyacrylamide gels. As expected, the product of the 5′-capped RNA reaction contained a band that ran one base slower than the uncapped transcript on a 15% gel.
Transcripts were 3′ end-labeled with ^32p cordycepin triphosphate using terminal transferase. This enzyme prefers DNA as a substrate, but limited labeling of RNA can be achieved with the use of Co^++. As expected, 3′-end-labeling occurred, but the extent of labeling was low.
After preparing 3′-end-labeled, 5′-capped RNA, the ability of Eu[THED]^3+ to cleave (or “decapitate”) the cap structure of the RNA was tested. The reaction conditions were as follows: 1 mM Eu[THED]^3+, 75 μM capped RNA target (˜3 mM with respect to phosphate bonds), 20 mM Tris-HCl, pH 7.0, 100 mM NaCl and 0.2% SDS. A second set of samples further contained 100 μM of an 18-mer DNA oligomer which was complementary to the sequence immediately adjacent to the 5′-cap. […]

Setting [1] is: Hybrid (100 μM 18-mer DNA), time 0 min.
Where [2] appears, read: Hybrid (100 μM 18-mer DNA), time 15 min.
Setting [3] is: Hybrid (100 μM 18-mer DNA), time 30 min.
The mark [4] stands for this setting: Hybrid (100 μM 18-mer DNA), time 60 min.
Where [5] appears, read: Hybrid (100 μM 18-mer DNA), time 120 min.
[6] abbreviates: Hybrid (100 μM 18-mer DNA), time 180 min.

Take “europium (III) complex of 1,4,7,10-tetrakis (2-hydroxyethyl)-1,4,7,10-tetraazacyclododecane [Eu[THED]]”: the “Capped RNA counts/area” value stood at 3975 counts/area under setting [1]; 4073 counts/area under setting [2]; 4070 counts/area under setting [3]; 3315 counts/area under setting [4]; 3509 counts/area under setting [5]; 2658 counts/area under setting [6]. Besides, the “Capped RNA counts/area” value (ssRNA, time 0 min) was 3266 counts/area; the “Capped RNA counts/area” value (ssRNA, time 30 min) was determined as 3481 counts/area; the “Capped RNA counts/area” value (ssRNA, time 120 min) is listed as 2232 counts/area; the “Capped RNA counts/area” value (ssRNA, time 180 min) was 1982 counts/area. Also, the “Decapitated RNA counts/area” value under setting [1] amounted to 1031 counts/area; the “Decapitated RNA counts/area” value under setting [2] was found to be 923 counts/area; the “Decapitated RNA counts/area” value under setting [3] amounted to 1073 counts/area; the “Decapitated RNA counts/area” value under setting [4] worked out at 1583 counts/area; the “Decapitated RNA counts/area” value under setting [5] is reported as 1946 counts/area; the “Decapitated RNA counts/area” value under setting [6] is reported as 1934 counts/area. Moreover, the “Decapitated RNA counts/area” value by setting is: (ssRNA, time 0 min) 1130 counts/area; (ssRNA, time 30 min) 1736 counts/area; (ssRNA, time 120 min) 2195 counts/area; (ssRNA, time 180 min) 1949 counts/area. Also, the “backbone cleavage of RNA” value (either data set (ssRNA and hybrid), 75 μM capped RNA) is recorded as “no evidence of backbone cleavage”.
